{"source": "patent US7317040B2", "about": "“Nitric oxide synthase inhibitor phosphate salt” (SmithKline Beecham Corporation, priority 2000, dated 2008)", "test": "Hygroscopicity: % weight change (w/w) against target relative humidity at 25 degrees C (moisture sorption isotherm)", "format": "physicochemical", "protocol": "The hygroscopicities of three samples of the compound of formula (I) monohydrate prepared in accordance with the above method were tested by measuring their % weight change (w/w) over a target relative humidity band of 0 to 90% at 25 degrees C.\nTo make these measurements, the following instruments and parameters were used: • Hiden IGASORP, Serial: IGA SA-040; • Hiden Intelligent Analyser, Model: HAS-022-120E, Serial: HALIGA-0042; • Flow=495 ml/min\nThe hydroscopicity of a sample of the compound of formula (I) trihydrate prepared in accordance with the above method was tested by measuring % weight change (w/w) over a target relative humidity band of 0 to 90% at 25° C.\nThe hygroscopicity of a sample of the dihydrochloride salt prepared in accordance with the above method was tested by measuring its % weight change (w/w) over a target relative humidity band of 30 to 80% at 25 degrees C.", "data": [{"compound": "CC(=N)NCCSCC[C@H](N)C(=O)O.O.O=P(O)(O)O", "note": "[compound of formula (I) monohydrate, (2S)-2-amino-4-{[2-(ethanimidoylamino)ethyl]thio}butanoic acid, compound with phosphoric acid, monohydrate]", "values": [{"measurement": "uptake of atmospheric moisture", "setting": "below a relative humidity of 70%, three samples, FIGS. 1 to 3", "value": "no significant uptake of atmospheric moisture"}]}, {"compound": "CC(=N)NCCSCC[C@H](N)C(=O)O.Cl", "note": "[dihydrochloride salt, (2S)-2-amino4-{[2-(ethanimidoylamino)ethyl]thio}butanoic acid, compound with hydrochloric acid]", "values": [{"measurement": "uptake of atmospheric moisture", "setting": "above 50% relative humidity, FIG. 4", "value": "rapid uptake of atmospheric moisture"}, {"measurement": "mass change", "setting": "at 55% relative humidity", "value": "about 11%"}, {"measurement": "mass change", "setting": "at 60% relative humidity", "value": "about 24%"}, {"measurement": "mass change", "setting": "at 65% relative humidity", "value": "about 32%"}, {"measurement": "mass change", "setting": "over a relative humidity range of 30-75%", "value": "about 47%"}]}]}
